Experimental data: PMC10382584, “Macrocyclization of linear molecules by deep learning to facilitate macrocyclic drug candidates discovery” (Nature Communications, 2023)
Several values for one entry are separate records, joined by “and”; a condition that tells them apart may be missing. Equal values may be shown once. Read-outs that look alike come from different tables or passages of the source.

Legend:
HEL cells = experiment: Cell proliferation assay (CCK-8), HEL cells; assay type: cell-based, human; details: for Inhibition (%): single wells, replicates 1 and 2
Experimental: (§1) The human erythroid leukemia (HEL 92.1.7) cells were purchased from the American Type Culture Collection (ATCC, TIB-180), and the human megakaryoblastic (SET2) cells were obtained from German Collection of Microorganisms and Cell Cultures (DSMZ, ACC 608). The anti-proliferative activities of compounds were evaluated using WST-8 cell counting kit-8 (Elabscience). HEL and SET-2 cells were seeded at 5000 cells/well in 70 μL RPMI-1640 medium (Hyclon) with 10% FBS (Gibco) to the 96-well plate and incubated overnight at 37 °C with 5% CO2. The compounds were serially diluted in RPMI-1640 medium, and cells were treated separately with 30 μL various concentrations of compounds for 72 h. The final DMSO concentration in the culture wells was 0.1%, which had no effect on the cell viability. Finally, 10 μL of CCK-8 solution was added into the wells. 4 h later, the absorbance values at 450 nm were recorded. IC50 values were determined using GraphPad Prism v8.3.0, and three parallel experiments were performed.

JAK2 = target: T1, JAK2 (Homo sapiens, UniProt O60674); experiment: JAK2 enzyme assay (Z'-LYTE kinase assay kit); assay type: biochemical
T1 construct: 0.05–0.42 ng JAK2, 2 μM peptide substrate (Tyr06)
T1 sequence (O60674 whole entry): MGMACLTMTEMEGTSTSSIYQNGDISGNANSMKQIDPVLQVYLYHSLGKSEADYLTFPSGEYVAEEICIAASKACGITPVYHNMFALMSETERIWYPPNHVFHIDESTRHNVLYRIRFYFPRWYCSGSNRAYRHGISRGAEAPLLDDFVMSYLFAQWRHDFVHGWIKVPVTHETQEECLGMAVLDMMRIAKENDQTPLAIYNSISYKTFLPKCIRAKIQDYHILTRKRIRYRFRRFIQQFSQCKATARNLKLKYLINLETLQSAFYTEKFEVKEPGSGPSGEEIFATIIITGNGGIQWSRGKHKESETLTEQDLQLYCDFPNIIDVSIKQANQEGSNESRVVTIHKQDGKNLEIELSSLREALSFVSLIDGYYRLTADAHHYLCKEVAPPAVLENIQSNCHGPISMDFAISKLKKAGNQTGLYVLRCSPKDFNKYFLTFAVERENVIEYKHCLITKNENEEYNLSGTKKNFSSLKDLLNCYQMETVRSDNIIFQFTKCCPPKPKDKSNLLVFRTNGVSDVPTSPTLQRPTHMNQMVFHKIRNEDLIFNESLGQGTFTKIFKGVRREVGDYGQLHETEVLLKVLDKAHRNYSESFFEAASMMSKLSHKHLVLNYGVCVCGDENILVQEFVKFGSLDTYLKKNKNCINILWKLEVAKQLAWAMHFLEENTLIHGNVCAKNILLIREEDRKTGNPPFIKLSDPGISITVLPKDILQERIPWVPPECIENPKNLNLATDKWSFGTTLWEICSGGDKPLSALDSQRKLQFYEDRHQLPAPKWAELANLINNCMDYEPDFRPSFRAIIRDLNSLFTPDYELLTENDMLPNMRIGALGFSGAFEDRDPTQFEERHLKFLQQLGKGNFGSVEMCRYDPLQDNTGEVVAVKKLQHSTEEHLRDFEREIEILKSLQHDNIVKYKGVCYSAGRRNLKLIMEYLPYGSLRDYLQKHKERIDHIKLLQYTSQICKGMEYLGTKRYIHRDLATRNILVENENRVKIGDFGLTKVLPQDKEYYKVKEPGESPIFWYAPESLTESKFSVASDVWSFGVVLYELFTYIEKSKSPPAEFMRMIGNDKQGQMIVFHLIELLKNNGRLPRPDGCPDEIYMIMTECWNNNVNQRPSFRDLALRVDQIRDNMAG
Experimental: JAK kinase activity assays were performed using Z’-LYTETM kinase assay kit (Life Technologies, pv4122). […] The mixture was added into the 384-well microplate, shaken gently, and then incubated at room temperature for 1 h. Subsequently, 5 μL development solution was added to the well for incubating another 1 h. Finally, 5 μL stop reagent was added to stop the reaction. […] IC50 values were calculated using GraphPad Prism v8.0.3, and three parallel experiments were performed.

SET-2 cells = experiment: Cell proliferation assay (CCK-8), SET-2 cells; assay type: cell-based, human; details: for Inhibition (%): single wells, replicates 1 and 2
Experimental: as §1

In vivo PK study in mice = details: mice
Experimental: The mice were separately administered to a group of three mice per time point for intravenous (5 mg/kg) or oral administration (5 mg/kg). […] Then the samples were separated by centrifugation and analyzed by LC-MS/MS (XEVO TQ-S) to determine the plasma drug concentrations. The PK parameters were calculated using the noncompartment model with Phoenix WinNonLin v8.0. The animal experimental procedures were approved by the Medicine Research Ethics Committee of Hangzhou Leading Pharmatech Co., Ltd.
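For AUCinf in this document: mice dosed intravenously or orally, three animals per time point, plasma drug levels quantified by LC-MS/MS, PK parameters derived by noncompartmental analysis in Phoenix WinNonLin.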
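For Cmax in this document: mice dosed intravenously or orally, three animals per time point, plasma drug levels quantified by LC-MS/MS, PK parameters derived by noncompartmental analysis in Phoenix WinNonLin.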
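For T1/2 in this document: mice dosed intravenously or orally, three animals per time point, plasma drug levels quantified by LC-MS/MS, PK parameters derived by noncompartmental analysis in Phoenix WinNonLin.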
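For Tmax in this document: mice dosed intravenously or orally, three animals per time point, plasma drug levels quantified by LC-MS/MS, PK parameters derived by noncompartmental analysis in Phoenix WinNonLin.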

For Cc1cnc2nc1Nc1cccc(c1)COCc1cc(ccc1OCCN1CCCC1)N2 [Compound 1], the “Inhibition (%)” value (HEL cells; HEL cell lines, 0.0977 μM) was 2.2777% and 0.5143% and -1.6899% and 3.096% and 4.826% and 5.277%, the “Inhibition (%)” value (HEL cells; HEL cell lines, 0.1953 μM) was 5.8046% and 4.8494% and 8.1558% and 6.255% and 8.812% and 5.578% and the “Inhibition (%)” value (HEL cells; HEL cell lines, 0.3906 μM) was 18.9566% and 20.0588% and 8.5966% and 7.458% and 10.165% and 8.511%. For the same molecule, the “Inhibition (%)” value (HEL cells; HEL cell lines, 0.7813 μM) was 26.0838% and 31.3005% and 30.4188% and 11.594% and 18.814% and 14.151%, the “Inhibition (%)” value (HEL cells; HEL cell lines, 1.5625 μM) was 34.0926% and 44.3057% and 45.4813% and 25.056% and 31.900% and 30.547% and the “Inhibition (%)” value (HEL cells; HEL cell lines, 3.1250 μM, 3.125 µM) was 46.4364% and 51.6532% and 53.8575% and 56.869% and 60.404% and 60.629%. The “Inhibition (%)” value (HEL cells; HEL cell lines, 6.2500 μM, 6.25 µM) was 64.2910% and 65.8339% and 68.7730% and 85.974% and 88.155% and 87.628%, the “Inhibition (%)” value (HEL cells; HEL cell lines, 12.5000 μM, 12.5 µM) was 80.4555% and 78.6187% and 81.4842% and 94.397% and 94.999% and 94.924% and the IC50 (HEL cells; HEL cell lines, mean of 2 replicates, read-out: IC50/μM mean, cellular antiproliferative activity) was 2.41 µM. For the same molecule, the IC50 (HEL cells; HEL cell lines, mean ± sd of 2 replicates, read-out: IC50/μM mean ± sd, cellular antiproliferative activity) was 2.41 ± 0.2 µM, the IC50 (HEL cells; HEL cell lines, single-replicate fits, read-out: IC50/μM (individual replicates), cellular antiproliferative activity) was 2.27 µM and 2.55 µM and the IC50 (HEL cells; HEL cells, 72 h, mean ± SD, read-out: Cellular Antiproliferative Activity (IC50) HEL) was 2.41 ± 0.2 µM. For the same molecule, the IC50 (JAK2; JAK2, 25 μM ATP, mean ± SD, n = 3, read-out: Enzyme Inhibitory Activity (IC50)) was 0.07 µM, the IC50 (JAK2; JAK2 enzyme, mean of 3 replicates, read-out: IC50/μM mean, enzyme inhibitory activity) was 0.07 µM and the IC50 (JAK2; JAK2 enzyme, mean ± SD of 3 replicates, read-out: IC50/μM mean ± SD, enzyme inhibitory activity) was 0.07 ± 0.006 µM. For the same molecule, the IC50 (JAK2; JAK2 enzyme, single-replicate fits (replicates 1-3), read-out: IC50/μM (individual replicates), enzyme inhibitory activity) was 0.072 µM and 0.064 µM and 0.075 µM, the “Inhibition (%)” value (SET-2 cells; SET-2 cell lines, 0.0977 μM) was 5.3742% and 3.7022% and -1.2341% and 4.261% and 8.580% and 6.307% and the “Inhibition (%)” value (SET-2 cells; SET-2 cell lines, 0.1953 μM) was 7.5239% and 7.2850% and 0.8360% and 9.148% and 16.307% and 12.784%. For the same molecule, the “Inhibition (%)” value (SET-2 cells; SET-2 cell lines, 0.3906 μM) was 10.3105% and 11.0271% and 3.0653% and 12.898% and 19.375% and 18.352%, the “Inhibition (%)” value (SET-2 cells; SET-2 cell lines, 0.7813 μM) was 17.3965% and 16.7596% and 8.4793% and 17.557% and 26.420% and 24.261% and the “Inhibition (%)” value (SET-2 cells; SET-2 cell lines, 1.5625 μM) was 26.9506% and 28.1449% and 22.3328% and 35.966% and 41.989% and 43.580%. For the same molecule, the “Inhibition (%)” value (SET-2 cells; SET-2 cell lines, 3.1250 μM, 3.125 µM) was 60.6290% and 56.0111% and 56.4092% and 69.034% and 74.716% and 74.943%, the “Inhibition (%)” value (SET-2 cells; SET-2 cell lines, 6.2500 μM, 6.25 µM) was 97.5717% and 97.1736% and 97.3328% and 98.920% and 99.830% and 100.398% and the “Inhibition (%)” value (SET-2 cells; SET-2 cell lines, 12.5000 μM, 12.5 µM) was 96.8551% and 96.6959% and 97.3328% and 99.716% and 100.170% and 100.398%. For the same molecule, the IC50 (SET-2 cells; SET-2 cell lines, mean of 2 replicates, read-out: IC50/μM mean, cellular antiproliferative activity) was 1.64 µM, the IC50 (SET-2 cells; SET-2 cell lines, mean ± sd of 2 replicates, read-out: IC50/μM mean ± sd, cellular antiproliferative activity) was 1.64 ± 0.03 µM and the IC50 (SET-2 cells; SET-2 cell lines, single-replicate fits, read-out: IC50/μM (individual replicates), cellular antiproliferative activity) was 1.62 µM and 1.66 µM. It also gave an IC50 (SET-2 cells; SET-2 cells, 72 h, mean ± SD, read-out: Cellular Antiproliferative Activity (IC50) SET-2) of 1.64 ± 0.03 µM, an AUCinf (In vivo PK study in mice; iv (5 mg/kg)) of 752.47 ng·h/mL and a Cmax (In vivo PK study in mice; iv (5 mg/kg)) of 76.57 ng/mL. The T1/2 (In vivo PK study in mice; iv (5 mg/kg)) was 5.35 h, the Tmax (In vivo PK study in mice; iv (5 mg/kg)) was 4.00 h and the AUCinf (In vivo PK study in mice; po (5 mg/kg)) was 106.00 ng·h/mL. It also gave a Cmax (In vivo PK study in mice; po (5 mg/kg)) of 10.35 ng/mL, a T1/2 (In vivo PK study in mice; po (5 mg/kg)) of 4.47 h and a Tmax (In vivo PK study in mice; po (5 mg/kg)) of 6.00 h. The “F (bioavailability)” value (In vivo PK study in mice; po (5 mg/kg) vs iv (5 mg/kg)) was 14.1%.
